Data as given in ChEMBL document CHEMBL2203065, “Synthesis and glycosidase inhibitory activity of novel (2-phenyl-4H-benzopyrimedo[2,1-b]-thiazol-4-yliden)acetonitrile derivatives” (Bioorg Med Chem Lett, 2012).

Legend:
Pancreatic alpha-amylase = target: T1, Pancreatic alpha-amylase (Sus scrofa, UniProt P00690); assay: Inhibition of porcine pancreatic alpha amylase using starch as substrate by Bernfeld method
T1 sequence (P00690 whole entry): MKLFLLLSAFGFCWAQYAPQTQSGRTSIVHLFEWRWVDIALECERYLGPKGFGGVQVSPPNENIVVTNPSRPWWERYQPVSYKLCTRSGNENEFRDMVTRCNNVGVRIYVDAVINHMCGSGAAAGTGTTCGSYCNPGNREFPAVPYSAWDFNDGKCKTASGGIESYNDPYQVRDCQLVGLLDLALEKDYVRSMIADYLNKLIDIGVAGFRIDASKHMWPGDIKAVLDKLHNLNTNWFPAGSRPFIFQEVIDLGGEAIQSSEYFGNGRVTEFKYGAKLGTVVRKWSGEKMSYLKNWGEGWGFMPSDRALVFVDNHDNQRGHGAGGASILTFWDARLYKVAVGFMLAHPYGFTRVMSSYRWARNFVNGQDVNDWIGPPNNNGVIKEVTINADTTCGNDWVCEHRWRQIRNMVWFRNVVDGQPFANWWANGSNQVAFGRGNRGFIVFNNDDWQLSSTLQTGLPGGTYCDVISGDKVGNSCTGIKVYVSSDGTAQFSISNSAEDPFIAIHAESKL

[1] = target: Lysosomal alpha-glucosidase (Mus musculus, UniProt P70699); assay: Inhibition of liver glucosidase in Swiss mouse liver extracts
[2] = Inhibition of pancreatic glucosidase in Swiss mouse pancreatic extracts
[3] = Inhibition of intestinal glucosidase in Swiss mouse intestinal extracts

Chain of Lysosomal alpha-glucosidase (P70699 whole entry): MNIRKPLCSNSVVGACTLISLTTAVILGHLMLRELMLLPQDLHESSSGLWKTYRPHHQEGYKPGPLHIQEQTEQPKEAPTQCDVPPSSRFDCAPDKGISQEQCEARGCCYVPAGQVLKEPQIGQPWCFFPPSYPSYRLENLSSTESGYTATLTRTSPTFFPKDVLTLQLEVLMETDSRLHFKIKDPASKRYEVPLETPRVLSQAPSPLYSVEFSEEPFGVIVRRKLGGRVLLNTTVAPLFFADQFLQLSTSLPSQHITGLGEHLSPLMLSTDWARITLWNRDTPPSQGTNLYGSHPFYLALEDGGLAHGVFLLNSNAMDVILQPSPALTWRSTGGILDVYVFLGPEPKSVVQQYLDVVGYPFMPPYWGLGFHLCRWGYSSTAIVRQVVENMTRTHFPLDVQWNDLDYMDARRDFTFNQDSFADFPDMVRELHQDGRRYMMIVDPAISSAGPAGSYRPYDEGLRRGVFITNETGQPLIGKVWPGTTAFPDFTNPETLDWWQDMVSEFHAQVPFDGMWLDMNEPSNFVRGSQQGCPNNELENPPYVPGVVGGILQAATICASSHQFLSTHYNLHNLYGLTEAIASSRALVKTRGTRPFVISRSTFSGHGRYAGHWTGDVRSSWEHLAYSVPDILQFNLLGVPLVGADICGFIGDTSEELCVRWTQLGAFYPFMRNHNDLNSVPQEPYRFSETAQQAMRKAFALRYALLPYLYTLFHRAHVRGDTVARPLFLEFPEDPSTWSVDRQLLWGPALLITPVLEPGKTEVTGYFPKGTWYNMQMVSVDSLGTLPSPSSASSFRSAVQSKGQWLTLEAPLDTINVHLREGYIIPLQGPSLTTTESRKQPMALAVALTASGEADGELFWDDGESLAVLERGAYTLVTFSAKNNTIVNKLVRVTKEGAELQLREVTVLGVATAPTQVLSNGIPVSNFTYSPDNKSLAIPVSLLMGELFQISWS

Row | IC50 (Pancreatic alpha-amylase) [µM] | IC50 [1] [µM] | IC50 [2] [µM] | IC50 ([3]; read-out: IC50) [µM] | Structure (SMILES) | IC50 [3]
1 | 22.3 | 25 | 29.2 | 41.6 | COc1ccc2c(c1)SC1=NC(c3ccccc3)=C/C(=C\C#N)N12 | –
2 | 21.8 | 18.7 | 46.1 | 38.6 | CCOc1ccc2c(c1)SC1=NC(c3ccccc3)=C/C(=C\C#N)N12 | –
3 | 24.4 | 25 | 17.5 | 37.3 | N#C/C=C1\C=C(c2ccc(F)cc2)N=C2Sc3ccccc3N21 | –
4 | 19.5 | 18.3 | 29.5 | 27.4 | COc1ccc2c(c1)SC1=NC(c3ccc(C)cc3)=C/C(=C\C#N)N12 | –
5 | 23.2 | 20.3 | 34.9 | 36.1 | Cc1ccc(C2=C/C(=C\C#N)N3C(=N2)Sc2ccccc23)cc1 | –
6 | 18.7 | 15.9 | 30.3 | 62.5 | COc1ccc2c(c1)SC1=NC(c3ccc4ccccc4c3)=C/C(=C\C#N)N12 | –
7 | 20.6 | 21.1 | 19 | 30.4 | COc1ccc2c(c1)SC1=NC(c3ccc(F)cc3)=C/C(=C\C#N)N12 | –
8 | 23 | 23.5 | 21.4 | 32.6 | N#C/C=C1\C=C(c2ccccc2)N=C2Sc3ccccc3N21 | –
9 | – | > 100 | > 100 | – | C[C@H]1O[C@H](O[C@H]2[C@H](O)[C@@H](O)[C@@H](O[C@H]3[C@H](O)[C@@H](O)C(O)O[C@@H]3CO)O[C@@H]2CO)[C@H](O)[C@@H](O)[C@@H]1N[C@H]1C=C(CO)[C@@H](O)[C@H](O)[C@H]1O (stereo not given in full) [ACARBOSE] | Not Active
10 | 17.4 | 14.1 | 33.8 | 30.5 | COc1ccc2c(c1)SC1=NC(c3ccc(Br)cc3)=C/C(=C\C#N)N12 | –
11 | 20.2 | 19.7 | 20.7 | 25.9 | COc1ccc2c(c1)SC1=NC(c3ccc(Cl)cc3)=C/C(=C\C#N)N12 | –
12 | 19.9 | 21.2 | 22.9 | 22.6 | N#C/C=C1\C=C(c2ccc3ccccc3c2)N=C2Sc3ccccc3N21 | –
13 | 21.9 | 22 | 17.4 | 17.6 | N#C/C=C1\C=C(c2ccc(Cl)cc2)N=C2Sc3ccccc3N21 | –

Row | Structure (SMILES) | IC50 (Pancreatic alpha-amylase) [µM] | IC50 [1] [µM] | IC50 [2] [µM] | IC50 ([3]; read-out: IC50) [µM] | IC50 [3]
14 | N#C/C=C1\C=C(c2ccc(Br)cc2)N=C2Sc3ccccc3N21 | 15.3 | 28.2 | 23 | – | Not Active
